Marks after values point to notes of the source that are not given here.
Tested on: mechanical allodynia induced by injection of acidic saline into gastrocnemius muscle
Assay: Pain suppression in animal model of fibromyalgia: mechanical allodynia induced by repeated intramuscular acidic saline, paw withdrawal threshold by von Frey filaments (up-down method)
Assay type: in vivo, rats (Sprague-Dawley)
Settings: for Area under the curve of the paw withdrawal threshold curve over time, compared with the vehicle group: ip
Text: Musculoskeletal pain is a major feature of fibromyalgia. A model that is linked to musculoskeletal pain in humans has been developed by Sluka K A, which model is characterized by mechanical sensitization induced by repeated intramuscular injections of acidic saline.
This experiment evaluated the effect of the test compound on persistent mechanical allodynia, which may well represent muscle pain or tenderness observed in patients with fibromyalgia. Repeated injections of acidic saline into the gastrocnemius muscle of rats lead to mechanical allodynia due to central sensitization (Sluka K A et. al., Unilateral intramuscular injections of acidic saline produce a bilateral, long-lasting hyperalgesia, Muscle Nerve. 2001).
Male rats (Sprague-Dawley, 150-200 g, 6 weeks old, Orient Bio Co., Ltd.) were purchased and subjected to acclimatization for more than 1 week in an animal chamber. The experimental animals were maintained under conditions of light-and-darkness cycle of 12 hours, a temperature of 22 to 25° C., a relative humidity of 40 to 60%, and free access to water and food.
Mechanical allodynia was assessed by measuring the paw withdrawal threshold of the rat right hind paw using Dixon's “up-down method” (Chaplan et. al., Quantitative assessment of tactile allodynia in the rat paw. J Neurosci Methods, 1994; Dixon W J, Efficient analysis of experimental observations, Annu Rev Pharmacol Toxicol. 1980). First, the rats were placed in an acrylic box (13×25×13 cm3) located on a wire mesh installed at a height of about 35 cm from the floor and stabilized for more than 20 minutes. […] von Frey filaments with various bending forces (0.2, 0.4, 0.6, 1.0, 2.0, 4.0, 6.0, 8.0, 15.0 g) were used. Starting with a filament of 2.0 g, bending force was applied perpendicular to the sole surface. In the case of no withdrawal (avoidance response), the next higher bending force filament was applied, or, in the case of withdrawal (avoidance response), the next lower bending force filament was applied. In order to obtain at least six (6) response results, the application of filaments was proceeded four (4) more times after showing the change in withdrawal.
The baseline withdrawal (avoidance response) threshold for mechanical stimulation on the right hind paw of rats was measured. 100 μl of preservative-free acidic saline (0.9% sodium chloride, pH 4.0) was intramuscularly injected into the right gastrocnemius muscle of the rats. After 5 days, the acidic saline was intramuscularly injected again into the same region by the same method. At 7 or 8 days after the second administration of acidic saline, induction of mechanical allodynia was confirmed by measuring withdrawal (avoidance response) thresholds to mechanical stimulation on the right hind paw, and rats with a mechanical withdrawal (avoidance response) threshold of less than 4.5 g were used for the evaluation of the test drug (Sluka K A et. al., Unilateral intramuscular injections of acidic saline produce a bilateral, long-lasting hyperalgesia, Muscle Nerve. 2001).
The test compound was prepared as a solution using 30% PEG 400 and 70% distilled water on a volume basis. Each solution was administered intraperitoneally to the rats at a volume of 3 ml per kg of rat. Withdrawal (avoidance response) thresholds to mechanical stimulation were measured at 30 minutes, 1 hour, 2 hours and 4 hours after drug administration.
[% MPE=(threshold over time after drug treatment−threshold at 0 hour)/(threshold of normal group−threshold at 0 hour)×100]
The vehicle or the test compound was administered intraperitoneally at doses of 5, 10 and 20 mg/kg, and withdrawal thresholds to mechanical stimulation were measured at 30 minutes, 1 hour, 2 hours and 4 hours.

Compound: NC(=O)O[C@@H](Cn1ncnn1)c1ccccc1Cl [Test compound]
- Withdrawal threshold of the right hind paw to mechanical stimulation (mean) (5 mg/kg ip group, 0 h (pre-dose, after acidic saline)): 2.97 g
- Withdrawal threshold of the right hind paw to mechanical stimulation (mean) (5 mg/kg ip group, baseline, prior to first injection of acidic saline (pre-dose)): 13.69 g
- Effect (%) (% MPE, percent of maximum possible effect) (5 mg/kg ip, 30 min): 10.8%
- Withdrawal threshold of the right hind paw to mechanical stimulation (mean) (5 mg/kg ip, 30 min after administration): 4.02 g
- Effect (%) (% MPE, percent of maximum possible effect) (5 mg/kg ip, 1 h): 35.6%
- Withdrawal threshold of the right hind paw to mechanical stimulation (mean) (5 mg/kg ip, 1 h after administration): 6.41^d g
- Effect (%) (% MPE, percent of maximum possible effect) (5 mg/kg ip, 2 h): 38.3%
- Withdrawal threshold of the right hind paw to mechanical stimulation (mean) (5 mg/kg ip, 2 h after administration): 6.67^e g
- Effect (%) (% MPE, percent of maximum possible effect) (5 mg/kg ip, 4 h): 10.7%
- Withdrawal threshold of the right hind paw to mechanical stimulation (mean) (5 mg/kg ip, 4 h after administration): 4.01 g
- Withdrawal threshold of the right hind paw to mechanical stimulation (mean) (10 mg/kg ip group, 0 h (pre-dose, after acidic saline)): 3.20 g
- Withdrawal threshold of the right hind paw to mechanical stimulation (mean) (10 mg/kg ip group, baseline, prior to first injection of acidic saline (pre-dose)): 14.29 g
- Effect (%) (% MPE, percent of maximum possible effect) (10 mg/kg ip, 30 min): 11.4%
- Withdrawal threshold of the right hind paw to mechanical stimulation (mean) (10 mg/kg ip, 30 min after administration): 4.27 g
- Effect (%) (% MPE, percent of maximum possible effect) (10 mg/kg ip, 1 h): 47.5%
- Withdrawal threshold of the right hind paw to mechanical stimulation (mean) (10 mg/kg ip, 1 h after administration): 7.68^e g
- Effect (%) (% MPE, percent of maximum possible effect) (10 mg/kg ip, 2 h): 43.5%
- Withdrawal threshold of the right hind paw to mechanical stimulation (mean) (10 mg/kg ip, 2 h after administration): 7.30^e g
- Effect (%) (% MPE, percent of maximum possible effect) (10 mg/kg ip, 4 h): 11.3%
- Withdrawal threshold of the right hind paw to mechanical stimulation (mean) (10 mg/kg ip, 4 h after administration): 4.26 g
- Area under the curve of the paw withdrawal threshold curve over time, compared with the vehicle group (10 mg/kg): statistically significant effects
- Withdrawal threshold of the right hind paw to mechanical stimulation (mean) (20 mg/kg ip group, 0 h (pre-dose, after acidic saline)): 2.95 g
- Withdrawal threshold of the right hind paw to mechanical stimulation (mean) (20 mg/kg ip group, baseline, prior to first injection of acidic saline (pre-dose)): 13.83 g
- Effect (%) (% MPE, percent of maximum possible effect) (20 mg/kg ip, 30 min): 44.6%
- Withdrawal threshold of the right hind paw to mechanical stimulation (mean) (20 mg/kg ip, 30 min after administration): 7.28^d g
- Effect (%) (% MPE, percent of maximum possible effect) (20 mg/kg ip, 1 h): 73.2%
- Withdrawal threshold of the right hind paw to mechanical stimulation (mean) (20 mg/kg ip, 1 h after administration): 10.04^e g
- Effect (%) (% MPE, percent of maximum possible effect) (20 mg/kg ip, 2 h): 82.2%
- Withdrawal threshold of the right hind paw to mechanical stimulation (mean) (20 mg/kg ip, 2 h after administration): 10.92^e g
- Effect (%) (% MPE, percent of maximum possible effect) (20 mg/kg ip, 4 h): 16.2%
- Withdrawal threshold of the right hind paw to mechanical stimulation (mean) (20 mg/kg ip, 4 h after administration): 4.52 g
- Area under the curve of the paw withdrawal threshold curve over time, compared with the vehicle group (20 mg/kg): statistically significant effects
- Area under the curve of the paw withdrawal threshold curve over time (5, 10 and 20 mg/kg ip, dose dependence): dose-dependent effect
- Muscle mechanical hyperalgesia in the chronic myalgia model (dose-dependent manner): significantly reduces
- Mechanical allodynia induced by repeated injections of acidic saline (intraperitoneally at doses of 5, 10 and 20 mg/kg): significantly inhibited
- Effect in the fibromyalgia disease model (overall conclusion): significant effect
